# Patent US11534478B2, “Compositions and methods for treating cancer” (Biokine Therapeutics Ltd., priority 2015, dated 2022)
# Where a SMILES comes first, the peptide text is derived from it. Bridges are numbered along the chain shown (N, C = ends). [ ]: non-standard residue; d: D form. The star is where a group is joined. 2Nal = N[C@@H](Cc1ccc2ccccc2c1)C(=O)O; Benzoyl(4-F) = O=C(c1ccc(F)cc1)*; Cit = NC(=O)NCCC[C@H](N)C(=O)O
# What was measured:
# ID02 = molecular target: T1, ID02 (Homo sapiens, UniProt Q6ZQW0); details: D isomer; cited from earlier work
# T1 sequence (Q6ZQW0 1-407): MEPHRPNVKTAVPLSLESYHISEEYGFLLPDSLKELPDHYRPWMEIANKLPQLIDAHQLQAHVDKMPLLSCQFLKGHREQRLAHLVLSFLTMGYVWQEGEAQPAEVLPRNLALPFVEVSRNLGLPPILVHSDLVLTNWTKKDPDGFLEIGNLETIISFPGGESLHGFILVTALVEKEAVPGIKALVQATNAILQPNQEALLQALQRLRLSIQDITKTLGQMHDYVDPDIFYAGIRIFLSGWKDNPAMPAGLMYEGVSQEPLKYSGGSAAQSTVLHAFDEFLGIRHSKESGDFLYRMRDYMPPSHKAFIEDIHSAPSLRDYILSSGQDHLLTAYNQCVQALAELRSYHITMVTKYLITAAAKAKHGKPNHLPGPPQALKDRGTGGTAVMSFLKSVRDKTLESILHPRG
# [1] = in vivo
# KIR2DL3 = KIR2DL3 (Homo sapiens, UniProt P10321+P43628); details: cited from earlier work
# Chain of KIR2DL3 (P43628 22-341): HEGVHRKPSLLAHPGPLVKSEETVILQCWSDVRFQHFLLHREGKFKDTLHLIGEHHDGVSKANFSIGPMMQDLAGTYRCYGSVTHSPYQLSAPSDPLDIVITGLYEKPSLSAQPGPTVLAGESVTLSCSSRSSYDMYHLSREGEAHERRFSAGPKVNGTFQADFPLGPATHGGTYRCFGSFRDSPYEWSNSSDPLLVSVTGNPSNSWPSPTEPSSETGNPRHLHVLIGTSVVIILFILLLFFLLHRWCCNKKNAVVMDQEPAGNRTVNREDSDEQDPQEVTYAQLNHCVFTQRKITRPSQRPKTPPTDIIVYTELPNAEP
# Chain of KIR2DL3 (P10321 25-366): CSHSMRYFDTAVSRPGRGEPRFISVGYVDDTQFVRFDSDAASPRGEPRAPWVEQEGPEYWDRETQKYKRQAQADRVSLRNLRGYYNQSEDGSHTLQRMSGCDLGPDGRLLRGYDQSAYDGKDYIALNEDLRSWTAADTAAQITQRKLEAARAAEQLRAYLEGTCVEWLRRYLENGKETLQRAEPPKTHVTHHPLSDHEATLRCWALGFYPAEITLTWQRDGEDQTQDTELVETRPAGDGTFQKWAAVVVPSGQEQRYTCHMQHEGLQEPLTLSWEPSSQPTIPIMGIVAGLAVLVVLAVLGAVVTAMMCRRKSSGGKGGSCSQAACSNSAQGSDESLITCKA
# Chain of KIR2DL3 (P61769 21-119 partner): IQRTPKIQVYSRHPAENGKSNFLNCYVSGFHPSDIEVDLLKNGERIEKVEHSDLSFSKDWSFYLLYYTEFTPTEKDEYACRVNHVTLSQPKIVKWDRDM
Compound,inhibition of KIR2DL3 (KIR2DL3),other results
"Cn1cc(C[C@H](N)C(=O)O)c2ccccc21 [Analog 1-MT, 1-methyl tryptophan]",–,specificity for ID02 (ID02): more specific for ID02
"N=C(N)NCCC[C@H](NC(=O)[C@@H]1CSSC[C@H](NC(=O)[C@H](Cc2ccc3ccccc3c2)NC(=O)[C@H](CCCNC(=N)N)NC(=O)[C@H](CCCNC(=N)N)NC(=O)c2ccc(F)cc2)C(=O)N[C@@H](Cc2ccc(O)cc2)C(=O)N[C@@H](CCCNC(N)=O)C(=O)N[C@@H](CCCCN)C(=O)N[C@H](CCCCN)C(=O)N2CCC[C@H]2C(=O)N[C@@H](Cc2ccc(O)cc2)C(=O)N[C@@H](CCCNC(=N)N)C(=O)N[C@@H](CCCNC(N)=O)C(=O)N1)C(N)=O [BL-8040, 4F-benzoyl-Arg-Arg-Nal-Cys-Tyr-Cit-Lys-DLys-Pro-Tyr-Arg-Cit-Cys-Arg-NH2] ({Benzoyl(4-F)}-RR[2Nal]CY[Cit]K[dK]PYR[Cit]CR-NH2; disulfide 4-13 (inferred))",–,safety and tolerability [1]: safe and well tolerated
VAPWNDAL,inhibitors of KIR2DL3,–
VAPWSNDYL,inhibitors of KIR2DL3,–
